# Measured values published in ChEMBL document CHEMBL1155913, “Novel anticancer agents, kayeassamins A and B from the flower of Kayea assamica of Myanmar” (2008).
# Calls of active or inactive are those of the source. The calls are words filed in the database; no cut-off is given here.
# Columns and labels:
# PANC-1 [1] = experiment: Cytotoxicity against human PANC1 cells under nutrient-deprived medium after 24 hrs by serial dilution method; type: functional
# PANC-1 [2] = experiment: Induction of apoptosis in human PANC1 cells under nutrient-deprived medium assessed as morphological changes at 1 uM after 24 hrs by phase-contrast microscopy; type: functional, cell-based
# PANC-1 [3] = experiment: Inhibition of human PANC1 cells migration to pipette tip-induced wounds under nutrient-rich medium at 1 uM after 72 hrs by phase-contrast microscopy; type: functional, cell-based
# PANC-1 [4] = experiment: Selectivity index, ratio of PC100 for human PANC1 cells under nutrient-rich to nutrient-deprived medium; type: functional
Compound,Cytotoxicity (PANC-1 [1]) [µM],Activity (PANC-1 [2]),Activity (PANC-1 [3]),Ratio (PANC-1 [4])
COc1cc(C[C@H]2C(=O)OC[C@@H]2Cc2ccc(OC)c(OC)c2)ccc1O [ARCTIGENIN],1,,,
CCCC(=O)c1c(O)c(C/C=C(\C)CCC=C(C)C)c(O)c2c([C@@H](O)CC)cc(=O)oc12 [KAYEASSAMIN A],1,Active,inactive,256
CCCC(=O)c1c(O)c(C/C=C(\C)CCC=C(C)C)c2oc(=O)cc([C@@H](O)CC)c2c1O [KAYEASSAMIN B],1,Active,inactive,256
